Measured values: US20200038418A1, “METHODS OF TREATING AUTISM SPECTRUM DISORDER USING AMINOSTEROL COMPOSITIONS” (Enterin, Inc., priority 2018, published 2020)

Key:
[1] = test system: mice with constipation due to overexpression of human αS; test: Gastrointestinal motility in mouse models of PD; assay type: in vivo
[2] = intravenous administration, prior studies; cited from earlier work
[3] = systemic administration, mice; cited from earlier work
[4] = test system: IPANs (intrinsic primary afferent neuron); test: Perfusion of isolated segment of bowel from the PD mouse model; conditions: perfusion through the lumen of isolated bowel segment from PD mouse model
[5] = single and repeat intravenous administration, alone or in combination; cited from earlier work

**Q.** For `CC(C)[C@@H](CC[C@@H](C)[C@H]1CC[C@H]2[C@@H]3[C@H](O)C[C@H]4C[C@@H](NCCCNCCCCN)CC[C@]4(C)[C@H]3CC[C@]12C)OS(=O)(=O)O` [squalamine], which gastro-intestinal motility ([1]; orally administered, mice with constipation due to overexpression of human αS) is on record?
**A.** stimulates gastro-intestinal motility

**Q.** What about the “effect on gastrointestinal dysmotility” value ([1]; several mouse models of PD) of the same compound?
**A.** reverse gastrointestinal dysmotility

**Q.** What about the gastrointestinal motility [2] of the same compound?
**A.** not associated with increased gastrointestinal motility

**Q.** What about the clearance and excretion [3] of the same compound?
**A.** cleared by the liver and excreted as the intact molecule

**Q.** And the “effect on IPANs and peristaltic contractions” value [4]?
**A.** excitation of IPANs

**Q.** For `CC(C)[C@@H](CC[C@@H](C)[C@H]1CC[C@H]2[C@@H]3[C@H](O)C[C@H]4C[C@@H](NCCCNCCCCN)CC[C@]4(C)[C@H]3CC[C@]12C)OS(=O)(=O)O.C[C@H](O)C(=O)O.C[C@H](O)C(=O)O` [squalamine dilactate salt], which dose well tolerated [5] is on record?
**A.** at least 300 mg/m^2
